According to EP0641797A1, “Cephem derivatives and antimicrobial agents containing the same” (KATAYAMA SEIYAKUSYO CO. Ltd., priority 1993, dated 1995):
≈ marks a conversion by molar mass, not a printed value. Read-outs that look alike come from different tables or passages of the source.

Legend:
Test in all cases: MIC on standard strains, standard method of Japan Society of Chemotherapy
Format in all cases: cell-based
P. aeruginosa AKR17 = conditions: Pseudomonas aeruginosa
Protocol: (§1) Antimicrobial activity of the compounds of the present invention were measured using CTM (cefotiam) and FMOX (flomoxef) as control drugs in accordance with the standard method of Japan Society of Chemotherapy. Of the 25 standard strains used in this test, Staphylococcus aureus 167 and Staphylococcus aureus 195 belong to MRSA.
(§2) In these tables, drugs tested are shown by the corresponding examples in which they were synthesized.

A. faecalis ATCC 3750 = system: A. faecalis ATCC 3750
Protocol: as §1, §2

S. aureus 195 = conditions: Staphylococcus aureus; S. aureus 195 (MRSA)
Protocol: as §1, §2

P. aeruginosa NCTC 10490 = system: P. aeruginosa NCTC 10490
Protocol: as §1, §2

B. subtilis ATCC 6633 = conditions: Bacillus subtilis, ATCC6633, B. subtilis ATCC 6633; read-out: MIC
Protocol: as §1, §2

S. aureus 209p JC-1 = system: S. aureus 209p JC-1
Protocol: as §1, §2

S. aureus Smith = system: S. aureus Smith
Protocol: as §1, §2

S. marcescens No. 16-2 = conditions: Serratia marcescens, NO.162
Protocol: as §1, §2

E. coli CSH2(RE45) = system: E. coli CSH2(RE45)
Protocol: as §1, §2

M. morganii IFO 3848 = conditions: Morganella morganii, IFO3848
Protocol: as §1, §2

P. vulugaris OX-19 = system: P. vulugaris OX-19
Protocol: as §1, §2

A. calcoaceticos T59 = conditions: read-out: MIC
Protocol: as §1, §2

S. aureus 167 = conditions: Staphylococcus aureus; S. aureus 167 (MRSA)
Protocol: as §1, §2

C. freundii ATCC 8090 = conditions: Citrobacter freundii, ATCC8090, C. freundii ATCC 8090; read-out: MIC
Protocol: as §1, §2

E. coli NHIJ JC-2 = conditions: Escherichia coli, NHIJJC2
Protocol: as §1, §2

E. cloacae ATCC 13407 = system: E. cloacae ATCC 13407
Protocol: as §1, §2

P. mirabilis IFO 3849 = system: P. mirabilis IFO 3849
Protocol: as §1, §2

P. cepacia = conditions: Burkholderia cepacia, read-out: MIC
Protocol: as §1, §2

E. coli CSH2(RK1) = conditions: Escherichia coli
Protocol: as §1, §2

K. pneuminiae IFO 3317 = system: K. pneuminiae IFO 3317
Protocol: as §1, §2

M. luteus ATCC 9341 = conditions: Micrococcus luteus, ATCC9341
Protocol: as §1, §2

E. cloacae Nek39 = conditions: Enterobacter cloacae, NEK39, E. cloacae Nek39; read-out: MIC
Protocol: as §1, §2

S. epidemidis IAM 1296 = system: S. epidemidis IAM 1296
Protocol: as §1, §2

S. marcescens IAM 1184 = system: S. marcescens IAM 1184
Protocol: as §1, §2

K. pneuminiae No. 42 = system: K. pneuminiae No. 42
Protocol: as §1, §2

[1] = Alcaligenes faecalis, ATCC3750, A. faecalis ATCC 3750, read-out: MIC
[2] = Pseudomonas aeruginosa, NCTC10490, P. aeruginosa NCTC 10490, read-out: MIC
[3] = Staphylococcus aureus, 209P, read-out: MIC
[4] = Staphylococcus aureus, read-out: MIC
[5] = Enterobacter cloacae, ATCC13407, E. cloacae ATCC 13407, read-out: MIC
[6] = Proteus mirabilis, IFO3849, P. mirabilis IFO 3849, read-out: MIC
[7] = Serratia marcescens, IAM1184, S. marcescens IAM 1184, read-out: MIC

Structure (SMILES) | MIC (P. aeruginosa AKR17) | MIC (A. faecalis ATCC 3750; [1]) | MIC (S. aureus 195) | MIC (P. aeruginosa NCTC 10490; [2]) | MIC (B. subtilis ATCC 6633) | MIC (S. aureus 209p JC-1; [3]) | MIC (S. aureus Smith; [4]) | MIC (S. marcescens No. 16-2) | MIC (E. coli CSH2(RE45); Escherichia coli) | MIC (M. morganii IFO 3848) | MIC (P. vulugaris OX-19) | MIC (A. calcoaceticos T59) | MIC (S. aureus 167) | MIC (C. freundii ATCC 8090) | MIC (E. coli NHIJ JC-2) | MIC (E. cloacae ATCC 13407; [5]) | MIC (P. mirabilis IFO 3849; [6]) | MIC (P. cepacia) | MIC (E. coli CSH2(RK1)) | MIC (K. pneuminiae IFO 3317) | further results
CN(C)CCn1nnnc1SCC1=C(C(=O)O)N2C(=O)[C@@H](NC(=O)Cc3csc(N)n3)[C@H]2SC1 [CTM, cefotiam, reference compound] | > 100 µg/mL | 6.25 µg/mL (≈ 11.9 µM) | > 100 µg/mL | > 100 µg/mL | 0.39 µg/mL (≈ 0.742 µM) | 1.56 µg/mL (≈ 2.97 µM) | 1.56 µg/mL (≈ 2.97 µM) | > 100 µg/mL | 0.2 µg/mL (≈ 0.38 µM) | 0.2 µg/mL (≈ 0.38 µM) | 0.39 µg/mL (≈ 0.742 µM) | > 100 µg/mL | > 100 µg/mL | 0.78 µg/mL (≈ 1.48 µM) | 0.2 µg/mL (≈ 0.38 µM) | 50 µg/mL (≈ 95.1 µM) | 0.78 µg/mL (≈ 1.48 µM) | > 100 µg/mL | 0.2 µg/mL (≈ 0.38 µM) | 0.2 µg/mL (≈ 0.38 µM) | MIC (A. faecalis ATCC 3750; A. faecalis ATCC 3750): 3.13 µg/mL (≈ 5.95 µM); MIC (P. aeruginosa NCTC 10490; P. aeruginosa NCTC 10490): 100 µg/mL (≈ 190 µM); MIC (S. aureus 209p JC-1): 0.78 µg/mL (≈ 1.48 µM); MIC (S. aureus Smith): 0.78 µg/mL (≈ 1.48 µM); MIC (E. coli CSH2(RE45)): 0.39 µg/mL (≈ 0.742 µM); MIC (E. cloacae ATCC 13407; E. cloacae ATCC 13407): >100 µg/mL; MIC (P. mirabilis IFO 3849; P. mirabilis IFO 3849): 0.39 µg/mL (≈ 0.742 µM); MIC (M. luteus ATCC 9341): 0.39 µg/mL (≈ 0.742 µM); MIC (E. cloacae Nek39): > 100 µg/mL; MIC (S. epidemidis IAM 1296): 0.39 µg/mL (≈ 0.742 µM); MIC (S. marcescens IAM 1184; S. marcescens IAM 1184): 3.13 µg/mL (≈ 5.95 µM); MIC (S. marcescens IAM 1184; [7]): 6.25 µg/mL (≈ 11.9 µM); MIC (K. pneuminiae No. 42): 0.39 µg/mL (≈ 0.742 µM)
NC(=O)Cc1ccc[n+](CC2=C(C(=O)[O-])N3C(=O)[C@@H](NC(=O)/C(=N\O)c4nsc(N)n4)[C@H]3SC2)c1 [Ex. 1, 7β-[2-(5-amino-1,2,4-thiadiazol-3-yl)-2-syn-hydroxyiminoacetamido]-3-(3-carbamoylmethylpyridinio)methyl-3-cephem-4-carboxylate] | > 100 µg/mL | 6.25 µg/mL (≈ 12.1 µM) | 12.5 µg/mL (≈ 24.1 µM) | 0.78 µg/mL (≈ 1.5 µM) | 0.39 µg/mL (≈ 0.752 µM) | 0.78 µg/mL (≈ 1.5 µM) | 1.56 µg/mL (≈ 3.01 µM) | > 100 µg/mL | 3.13 µg/mL (≈ 6.04 µM) | 1.56 µg/mL (≈ 3.01 µM) | 3.13 µg/mL (≈ 6.04 µM) | 3.13 µg/mL (≈ 6.04 µM) | 12.5 µg/mL (≈ 24.1 µM) | 1.56 µg/mL (≈ 3.01 µM) | 1.56 µg/mL (≈ 3.01 µM) | 3.13 µg/mL (≈ 6.04 µM) | 1.56 µg/mL (≈ 3.01 µM) | > 100 µg/mL | 3.13 µg/mL (≈ 6.04 µM) | 0.78 µg/mL (≈ 1.5 µM) | MIC (M. luteus ATCC 9341): 0.2 µg/mL (≈ 0.386 µM); MIC (E. cloacae Nek39): 100 µg/mL (≈ 193 µM); MIC (S. epidemidis IAM 1296): 0.39 µg/mL (≈ 0.752 µM); MIC (S. marcescens IAM 1184; [7]): 0.78 µg/mL (≈ 1.5 µM); MIC (K. pneuminiae No. 42): 1.56 µg/mL (≈ 3.01 µM)
